Measurements published in patent US20240285615A1, “MEDICAMENTS COMPRISING GLYCOSIDASE INHIBITORS” (priority 2021, published 2024).

Tests used:
DSS colitis model = experiment: In vivo treatment efficacy on DSS colitis model; settings: balb/c mice, oral gavage for 21 days, 5% DSS
Procedure: The dextran sodium sulfate (DSS) is a negatively charged sulfated polysaccharide of approximately 36-50 kDa which induces colitis when administered at 5% (weight/volume) in drinking water for several days (Okayasu I. et al. (1990) Gastroenterology 98:694-702).
Adult (balb/c) mice are randomized and are allowed to a period of acclimatization for one week. After this, the compound of formula (I) or vehicle is administered for 21 days by oral gavage, starting 2 weeks before the DSS treatment (Day −14) and continuing during DSS treatment and until the end of the experiment (Day +9). At Day 0, animals are getting access to a 5% (weight/volume) DSS solution in drinking water until Day +5. The DSS solution is then removed and replaced by drinking water for 4 more days until Day +9. From Day 0 until the end of the experiment […], animals are monitored daily for clinical signs of colitis including bodyweight loss, loose stools and/or diarrhoea and presence of occult or gross blood in the stools. At Day +12 or when animals reach humane endpoints, colons are dissected out, to measure their lengths and observe their content. A sample of distal colon is processed for histopathology. […]
Histological injury and inflammation are scored as described in Gilbert et al (2012) (Gilbert S. et al. (2012) EMBO Mol. Med. 4: 109-124). […]

[1] = tested on: acute glaucoma-induced I/R injury; experiment: In vivo treatment efficacy on acute glaucoma induced ischemia-reperfusion (I/R) model; parameters: species or system Sprague-Dawley (SD) rats; settings: SD rats, oral, 7 days after I/R injury
Procedure: The efficacy of compound of formula (I) is evaluated in the acute glaucoma animal model. Eight-week-old male Sprague-Dawley (SD) rats weighing 250 to 300 g are housed in a temperature- and humidity-controlled animal room under a 12-hour light/12-hour dark cycle, with food and water provided ad libitum. Before any experiment, animals are allowed for one week of acclimatization. The SD rats are randomly allocated to control group and/or treatment groups. Compound of formula (I) is administrated by oral (gavage) route. Two protocols are considered, where the treatment is initiated 24 hours before or 1 hour after the induction of acute glaucoma-induced I/R injury.
To induce I/R injury, a general anesthesia is induced via i.p. injection of a mixture of 50 mg/kg of ketamine and 2 mg/kg of xylazine. Corneal analgesia is administered using a drop of topical 0.5% proparacaine hydrochloride ophthalmic solution, and pupillary dilatation is maintained with 0.5% tropicamide and 0.5% phenylephrine. After analgesia and dilation of the pupil, the anterior chamber of the left eye is cannulated with a 30-gauge needle connected to a saline reservoir at 150 cm above the eye, leading to a high intraocular pressure (IOP) of 110 mm Hg. The presence of retinal ischemia is examined by the fundus. The cannulation is lasting 60 minutes. After removing the infusion needle from the anterior chamber, the IOP returns to normal. Antibiotic ophthalmic gel with tobramycin is topically applied to the eye before and after the procedure. The rats are sacrificed 7 days after I/R injury to observe the long-term effect of the compound of formula (I) treatment. After collection, the thickness of the retinas is examined by histological staining (Mayer P, (1896), Mitt. zool. Stn. Neapel., 12, 303). The number of retinal ganglion cells is also quantified by immunohistochemistry. Finally, the function of the retina is also evaluated 7 days after I/R injury by electroretinography (ERG).

[2] = tested on: patients with probable PSP Richardson's syndrome; experiment: Phase 2 clinical trial, dose extension (Example 7); format: in vivo, human; settings: 300 mg, 150 mg or 75 mg TID PO
Procedure: The study design of this Example 7 is analogous to the study described in Example 6, a randomized, multi-centre, double-blind, placebo-controlled trial to study the safety and tolerability of compound (I) in patients with probable PSP Richardson's syndrome. Approximately 40 patients (40 to 85 years of age, inclusive) are randomized in a 2:1:1:1 ratio to 300 mg or 150 mg or 75 mg or placebo TID PO, with or without food.

In the case of `CC(=O)Nc1nnc(N2CCN([C@@H](C)c3ccc4c(c3)OCO4)CC2)s1` [Compound (I)], the “disease score (body weight loss, stool, blood in feces, general appearance)” value (DSS colitis model) is reported as “decrease in the disease score”, the “tissue inflammation by histology examination” value (DSS colitis model) is reported as “significant decrease of tissue inflammation” and the “number of retinal ganglion cells by immunohistochemistry” value [1] is reported as “increase number of retinal ganglion cells”. The “retinal function by electroretinography” value [1] was “improving retinal function”, the “thickness of the retina by H&E staining” value [1] was “mitigating the reduction of thickness of the retina” and the “efficacy, safety and tolerability of the preferred dosage regimen” value [2] was “especially effective, safe and well tolerated”.
